Our source for the IC50 values is patent publication US20260167619A2, “INDOLINE COMPOUNDS AND DERIVATIVES AS EGFR INHIBITORS” (BeOne Medicines I GmbH, priority 2020, published 2026).

Molecules are shown by their SMILES.

Experiment [1] concerns the target EGFR(Dell9_T790M_C797S) (aa 669-1210, in house) (Homo sapiens, UniProt P00533, T790M/C797S, form not given). Kind of experiment: Biochemical EGFR inhibition assay (TR-FRET), Del19/T790M/C797S mutant. Conditions: ATP at Km, 15 min pre-incubation, 60 min reaction; read-out: Del_TM_CS (Km ATP) IC50. On the procedure:
(§1) Compounds were tested for inhibition of kinase activity against EGFR (aa668-1210, Invitrogen), EGFR(L858R_T790M_C797S) (aa695-end, Invitrogen) and EGFR(Dell9_T790M_C797S) (aa 669-1210, in house) in assays based on time-resolved fluorescence-resonance energy transfer (TR-FRET) methodology. Recombinant EGFR, EGFR(L858R_T790M_C797S) or EGFR(Dell9_T790M_C797S) was pre-incubated with the compounds at room temperature for 15 minutes in an assay buffer containing 50 mM HEPES pH7.5, 10 mM MgCl2, 2 mM DTT, 1 mM EGTA, 0.1% BSA, 0.01% Tween-20. The reactions were initiated by the addition of ATP (at the concentration of ATP Km) and substrate Biotin-Poly GT. After reaction at room temperature for 60 minutes, stop/detection solution was added. The stop/detection solution contained Eu^3+ cryptate-conjugated mouse monoclonal antibody (PT66) anti-phosphotyrosine and XL665-conjugated streptavidin in buffer containing 50 mM HEPES pH7.0, 800 mM KF, 20 mM EDTA, and 0.1% BSA. Plates were sealed and incubated at room temperature for 1 hour, and the TR-FRET signals (ratio of fluorescence emission at 665 nm over emission at 620 nm with excitation at 337 nm wavelength) were recorded on a PHERAstar FS plate reader (BMG Labtech). The residual enzyme activity in presence of increasing concentrations of compounds was calculated based on the ratio of fluorescence at 665 nm to that at 620 nm. The IC50 for each compound was derived from fitting the data to the four-parameter logistic equation by Dotmatics or Graphpad Prism software.
(§2) These biochemical EGFR enzyme form compound dose-response assays quantify the kinase activity via phosphorylation of a tagged poly-GT substrate. The results of the assay are provided as IC50 values.
Background: In TR-FRET formats the signal depends on donor and acceptor labels being close together.

For experiment [2], the target named is T1, EGFR(L858R_T790M_C797S) (aa695-end, Invitrogen) (Homo sapiens, UniProt P00533, C797S/L858R/T790M).
T1 construct: purchased Invitrogen
Kind of experiment: Biochemical EGFR inhibition assay (TR-FRET), L858R/T790M/C797S mutant. Conditions: ATP at Km, 15 min pre-incubation, 60 min reaction; read-out: LR_TM_CS (Km ATP) IC50. The procedure: as §1, §2

The target of experiment [3] is T2, EGFR (aa668-1210, Invitrogen) (Homo sapiens, UniProt P00533).
T2 construct: EGFR (aa668-1210, Invitrogen); purchased Invitrogen
The experiment in a line: Biochemical EGFR inhibition assay (TR-FRET), wild-type EGFR. Conditions: ATP at Km, 15 min pre-incubation, 60 min reaction; read-out: WT (Km ATP) IC50. On the procedure:
as §1, §2

T1 sequence (P00533 695-1210 T790M/C797S/L858R): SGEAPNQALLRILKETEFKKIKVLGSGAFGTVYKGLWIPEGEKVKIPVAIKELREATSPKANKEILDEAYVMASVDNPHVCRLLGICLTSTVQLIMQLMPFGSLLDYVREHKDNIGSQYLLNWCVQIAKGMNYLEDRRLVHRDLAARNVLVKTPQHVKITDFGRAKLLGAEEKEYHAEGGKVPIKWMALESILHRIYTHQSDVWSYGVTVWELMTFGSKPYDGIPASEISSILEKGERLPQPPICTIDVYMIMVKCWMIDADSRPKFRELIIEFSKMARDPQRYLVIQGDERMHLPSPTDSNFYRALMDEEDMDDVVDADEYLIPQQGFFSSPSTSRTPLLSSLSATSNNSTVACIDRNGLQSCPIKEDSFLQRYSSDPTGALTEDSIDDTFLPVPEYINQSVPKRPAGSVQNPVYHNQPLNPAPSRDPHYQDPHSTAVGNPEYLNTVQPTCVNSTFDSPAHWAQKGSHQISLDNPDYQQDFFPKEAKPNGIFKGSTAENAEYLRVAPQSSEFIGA
T2 sequence (P00533 668-1210): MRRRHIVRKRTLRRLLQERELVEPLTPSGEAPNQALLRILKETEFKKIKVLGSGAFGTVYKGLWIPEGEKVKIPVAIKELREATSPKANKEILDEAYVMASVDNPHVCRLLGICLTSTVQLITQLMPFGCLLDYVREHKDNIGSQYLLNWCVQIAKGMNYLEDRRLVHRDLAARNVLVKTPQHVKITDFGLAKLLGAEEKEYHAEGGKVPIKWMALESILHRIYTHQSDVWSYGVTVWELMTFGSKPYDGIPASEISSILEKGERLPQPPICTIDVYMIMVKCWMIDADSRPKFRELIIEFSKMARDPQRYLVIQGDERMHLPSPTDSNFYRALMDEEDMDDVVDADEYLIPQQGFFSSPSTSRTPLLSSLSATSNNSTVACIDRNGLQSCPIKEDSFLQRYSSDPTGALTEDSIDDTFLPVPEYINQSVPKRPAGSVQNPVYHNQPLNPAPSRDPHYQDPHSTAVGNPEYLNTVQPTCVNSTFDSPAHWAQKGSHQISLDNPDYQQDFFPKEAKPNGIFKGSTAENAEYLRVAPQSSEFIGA
Sequence of EGFR(Dell9_T790M_C797S) (aa 669-1210, in house) (P00533 with tags, fused parts or gaps DEL746-750/T790M/C797S, form open): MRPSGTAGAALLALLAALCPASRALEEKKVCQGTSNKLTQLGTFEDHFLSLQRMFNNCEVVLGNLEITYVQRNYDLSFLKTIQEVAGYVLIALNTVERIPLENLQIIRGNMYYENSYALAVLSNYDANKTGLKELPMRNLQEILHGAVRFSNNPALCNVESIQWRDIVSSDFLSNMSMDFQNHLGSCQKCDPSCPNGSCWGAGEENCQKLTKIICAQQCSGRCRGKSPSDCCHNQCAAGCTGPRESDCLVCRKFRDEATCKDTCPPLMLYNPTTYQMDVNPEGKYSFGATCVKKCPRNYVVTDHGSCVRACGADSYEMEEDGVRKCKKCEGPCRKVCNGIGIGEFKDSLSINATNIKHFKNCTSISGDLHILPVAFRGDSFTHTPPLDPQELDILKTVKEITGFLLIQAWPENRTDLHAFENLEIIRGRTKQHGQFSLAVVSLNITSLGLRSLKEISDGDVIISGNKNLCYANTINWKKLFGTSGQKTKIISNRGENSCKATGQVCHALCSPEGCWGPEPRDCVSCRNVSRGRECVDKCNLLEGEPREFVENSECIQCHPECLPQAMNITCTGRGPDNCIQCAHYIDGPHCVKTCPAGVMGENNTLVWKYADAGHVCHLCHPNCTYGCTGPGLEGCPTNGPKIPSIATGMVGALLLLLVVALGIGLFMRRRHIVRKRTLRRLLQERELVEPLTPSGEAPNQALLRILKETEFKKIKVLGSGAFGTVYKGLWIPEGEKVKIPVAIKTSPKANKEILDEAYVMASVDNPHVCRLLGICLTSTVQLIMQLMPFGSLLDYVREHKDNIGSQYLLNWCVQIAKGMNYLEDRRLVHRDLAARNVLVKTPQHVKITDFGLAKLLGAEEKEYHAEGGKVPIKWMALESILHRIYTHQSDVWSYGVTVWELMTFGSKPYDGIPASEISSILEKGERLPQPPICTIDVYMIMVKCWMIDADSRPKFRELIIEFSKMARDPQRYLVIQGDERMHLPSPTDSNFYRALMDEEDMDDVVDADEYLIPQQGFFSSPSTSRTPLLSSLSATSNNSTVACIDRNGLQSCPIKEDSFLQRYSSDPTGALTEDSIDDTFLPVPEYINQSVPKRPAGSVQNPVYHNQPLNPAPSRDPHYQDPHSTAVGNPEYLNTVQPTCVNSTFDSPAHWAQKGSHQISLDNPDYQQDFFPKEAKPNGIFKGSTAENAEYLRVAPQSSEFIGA

With `COc1cc(N2CCC(N3CCN(C)CC3)CC2)ccc1Nc1ncc(Cl)c(Nc2cccc3c2N(S(=O)(=O)CF)CC3)n1` [Example 12, 5-chloro-N^4-(1-((fluoromethyl)sulfonyl)indolin-7-yl)-N^2-(2-methoxy-4-(4-(4-methylpiperazin-1-yl)piperidin-1-yl)phenyl)pyrimidine-2,4-diamine], the IC50 stood at 0.44 nM in experiment [1], 1.17 nM in experiment [2] and 3 nM in experiment [3].
The matching figures for `COc1cc(N2CCC(N3CCN(C)CC3)CC2)ccc1Nc1ncc(Br)c(Nc2cccc3c2N(S(C)(=O)=O)CC32CC2)n1` [Example 28, 5-bromo-N^2-(2-methoxy-4-(4-(4-methylpiperazin-1-yl)piperidin-1-yl)phenyl)-N^4-(1′-(methylsulfonyl)spiro[cyclopropane-1,3′-indolin]-7′-yl)pyrimidine-2,4-diamine]: 0.39 nM, 0.44 nM and 0.9 nM.
`COc1cc(N2C[C@@H](C)N(C)[C@@H](C)C2)c(C)cc1Nc1ncc(Br)c(Nc2cccc3c2N(S(C)(=O)=O)CC3)n1` [Example 42, 5-bromo-N^2-(2-methoxy-5-methyl-4-((3S,5R)-3,4,5-trimethylpiperazin-1-yl)phenyl)-N^4-(1-(methylsulfonyl)indolin-7-yl)pyrimidine-2,4-diamine]: the values for the 50% inhibitory concentration (IC50) in experiment [1], in experiment [2] and in experiment [3] were 0.3 nM, 0.4 nM and 8.5 nM, respectively.
The matching figures for `COc1cc(N2CCN(C)[C@@H](C)C2)c(C)cc1Nc1ncc(Br)c(Nc2cccc3c2N(S(C)(=O)=O)CC3)n1` [Example 43, (S)-5-bromo-N^2-(4-(3,4-dimethylpiperazin-1-yl)-2-methoxy-5-methylphenyl)-N^4-(1-(methylsulfonyl)indolin-7-yl)pyrimidine-2,4-diamine]: 0.5 nM, 0.5 nM and 12.1 nM.
For `COc1cc(N2CCC3(CCN(C)CC3)CC2)c(Cl)cc1Nc1ncc(Br)c(Nc2cccc3c2N(S(C)(=O)=O)CC3)n1` [Example 44, 5-bromo-N^2-(5-chloro-2-methoxy-4-(9-methyl-3,9-diazaspiro[5.5]undecan-3-yl)phenyl)-N^4-(1-(methylsulfonyl)indolin-7-yl)pyrimidine-2,4-diamine], in that order: 0.7 nM, 0.3 nM and 3.2 nM.
In the case of `COc1cc(N2CCC3(CC2)CN(C)C3)c(C)cc1Nc1ncc(Br)c(Nc2cccc3c2N(S(C)(=O)=O)CC3)n1` [Example 45, 5-bromo-N^2-(2-methoxy-5-methyl-4-(2-methyl-2,7-diazaspiro[3.5]nonan-7-yl)phenyl)-N^4-(1-(methylsulfonyl)indolin-7-yl)pyrimidine-2,4-diamine], the IC50 in experiment [1] worked out at 0.3 nM; in experiment [2] it was 0.2 nM; in experiment [3], 1 nM.
The matching figures for `COc1cc(N2CCC(N(C)C)CC2)c(C)cc1Nc1ncc(Br)c(Nc2cccc3c2N(S(C)(=O)=O)CC3)n1` [Example 46, 5-bromo-N^2-(4-(4-(dimethylamino)piperidin-1-yl)-2-methoxy-5-methylphenyl)-N^4-(1-(methylsulfonyl)indolin-7-yl)pyrimidine-2,4-diamine]: 0.2 nM, 0.1 nM and 0.9 nM.
Consider `CN(C)C1CCN(c2ccc(Nc3ncc(Br)c(Nc4cccc5c4N(S(C)(=O)=O)CC5)n3)c3c2CCC3)CC1` [Example 53, 5-bromo-N^2-(7-(4-(dimethylamino)piperidin-1-yl)-2,3-dihydro-1H-inden-4-yl)-N^4-(1-(methylsulfonyl)indolin-7-yl)pyrimidine-2,4-diamine], for which the concentration for half-maximal inhibition (IC50) in experiment [1] came out at 0.28 nM; in experiment [2], 0.32 nM; in experiment [3], 6.5 nM.
For `CN(C)C1CCN(c2ccc(Nc3ncc(Br)c(Nc4cccc5c4N(S(C)(=O)=O)CC5)n3)c3c2CC(C)(C)O3)CC1` [Example 55, 5-bromo-N^2-(4-(4-(dimethylamino)piperidin-1-yl)-2,2-dimethyl-2,3-dihydrobenzofuran-7-yl)-N^4-(1-(methylsulfonyl)indolin-7-yl)pyrimidine-2,4-diamine], in that order: 5.82 nM, 7 nM and 64.5 nM.
For `CN1CCN(c2ccc(Nc3ncc(Br)c(Nc4cccc5c4N(S(C)(=O)=O)CC5)n3)c3c2CC(C)(C)O3)CC1` [Example 56, 5-bromo-N^2-(2,2-dimethyl-4-(4-methylpiperazin-1-yl)-2,3-dihydrobenzofuran-7-yl)-N^4-(1-(methylsulfonyl)indolin-7-yl)pyrimidine-2,4-diamine], in that order: 10.6 nM, 23.3 nM and 241 nM.
The matching figures for `CN1CCN(C2CCN(c3ccc(Nc4ncc(Br)c(Nc5cccc6c5N(S(C)(=O)=O)CC6)n4)c4c3CC(C)(C)O4)CC2)CC1` [Example 57, 5-bromo-N^2-(2,2-dimethyl-4-(4-(4-methylpiperazin-1-yl)piperidin-1-yl)-2,3-dihydrobenzofuran-7-yl)-N^4-(1-(methylsulfonyl)indolin-7-yl)pyrimidine-2,4-diamine]: 8.79 nM, 17.1 nM and 101 nM.
Take `CN1CCN(c2c(F)cc(Nc3ncc(Br)c(Nc4cccc5c4N(S(C)(=O)=O)CC5)n3)c3c2CCO3)CC1` [Example 58, 5-bromo-N^2-(5-fluoro-4-(4-methylpiperazin-1-yl)-2,3-dihydrobenzofuran-7-yl)-N^4-(1-(methylsulfonyl)indolin-7-yl)pyrimidine-2,4-diamine]: the half-inhibitory concentration (IC50) turned out to be 1.57 nM in experiment [1], 1.7 nM in experiment [2] and 10.3 nM in experiment [3].
Turning to `CN(C)C1CCN(c2c(F)cc(Nc3ncc(Br)c(Nc4cccc5c4N(S(C)(=O)=O)CC5)n3)c3c2CCO3)CC1` [Example 59, 5-bromo-N^2-(4-(4-(dimethylamino)piperidin-1-yl)-5-fluoro-2,3-dihydrobenzofuran-7-yl)-N^4-(1-(methylsulfonyl)indolin-7-yl)pyrimidine-2,4-diamine], the half-maximal inhibitory concentration (IC50) turned out to be 0.24 nM in experiment [1], 0.2 nM in experiment [2] and 1.1 nM in experiment [3].
For `CN1CCN(C2CCN(c3c(F)cc(Nc4ncc(Br)c(Nc5cccc6c5N(S(C)(=O)=O)CC6)n4)c4c3CCO4)CC2)CC1` [Example 60, 5-bromo-N^2-(5-fluoro-4-(4-(4-methylpiperazin-1-yl)piperidin-1-yl)-2,3-dihydrobenzofuran-7-yl)-N^4-(1-(methylsulfonyl)indolin-7-yl)pyrimidine-2,4-diamine], in that order: 0.35 nM, 0.3 nM and 0.5 nM.
The matching figures for `CC1Cc2c(N3CCC(N4CCN(C)CC4)CC3)ccc(Nc3ncc(Br)c(Nc4cccc5c4N(S(C)(=O)=O)CC5)n3)c2O1` (stereo not drawn) [Example 61, 5-bromo-N^2-(2-methyl-4-(4-(4-methylpiperazin-1-yl)piperidin-1-yl)-2,3-dihydrobenzofuran-7-yl)-N^4-(1-(methylsulfonyl)indolin-7-yl)pyrimidine-2,4-diamine]: 1.58 nM, 1.5 nM and 15.2 nM.
The matching figures for `CC1Cc2c(N3CCN(C)CC3)ccc(Nc3ncc(Br)c(Nc4cccc5c4N(S(C)(=O)=O)CC5)n3)c2O1` (stereo not drawn) [Example 62, 5-bromo-N^2-(2-methyl-4-(4-methylpiperazin-1-yl)-2,3-dihydrobenzofuran-7-yl)-N^4-(1-(methylsulfonyl)indolin-7-yl)pyrimidine-2,4-diamine]: 0.42 nM, 0.68 nM and 11.6 nM.
With `CC1Cc2c(N3CCC(N(C)C)CC3)ccc(Nc3ncc(Br)c(Nc4cccc5c4N(S(C)(=O)=O)CC5)n3)c2O1` (stereo not drawn) [Example 65, 5-bromo-N^2-(4-(4-(dimethylamino)piperidin-1-yl)-2-methyl-2,3-dihydrobenzofuran-7-yl)-N^4-(1-(methylsulfonyl)indolin-7-yl)pyrimidine-2,4-diamine], the IC50 in experiment [1] came to 0.63 nM; in experiment [2] it was 0.48 nM; in experiment [3] it was 5.5 nM.
Regarding `CCN1CCN(C2CCN(c3c(F)cc(Nc4nc(Nc5cccc6c5N(S(C)(=O)=O)CC6)c5cc[nH]c5n4)cc3F)CC2)CC1` [Example 78, N^2-(4-(4-(4-ethylpiperazin-1-yl)piperidin-1-yl)-3,5-difluorophenyl)-N^4-(1-(methylsulfonyl)indolin-7-yl)-7H-pyrrolo[2,3-d]pyrimidine-2,4-diamine], the IC50 in experiment [1] worked out at 2 nM; in experiment [2] it was 1.5 nM; in experiment [3], 99 nM.

As usually defined, the IC50 is the concentration at which inhibition is half-maximal.
